Each structure is given as a SMILES string. Several values for one entry are separate records, joined by “and”; a condition that tells them apart may be missing. Equal values may be shown once.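 Grown in 96-well plates, cells were treated for 48 hours with each compound at five concentrations. Insufficient inhibition: endpoint recorded as highest concentration tested. Abbreviation: GI50, concentration required for 50% inhibition of growth. TGI is the concentration that stops growth completely.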

What all share (experiment): NCI tumour cell line growth inhibition, 48 h
Assay [1] deals with SNB-19 CNS.
Assay [2] deals with RXF 393 renal.
The subject of assay [3] is SF-295 CNS.
Assay [4] relates to LOX IMVI melanoma.
The subject of assay [5] is PC-3 prostate.
Assay [6] deals with SR leukemia.
Assay [7] concerns SF-268 CNS.
Assay [8] has as its system 786-0 renal.
Assay [9] deals with NCI-H460 lung.
In assay [10] the test system is DU-145 prostate.

On to `Cc1[nH]c(N=Nc2ccccc2)nc1N=Nc1ccccc1`, for which the GI50 in assay [1] is 3.63 µM; in assay [2], 0.552 µM; in assay [3], 1.93 µM; in [4], 2.72 µM; in assay [5], 4.99 µM; in assay [6], 0.418 µM. Further, the GI50 in assay [7] is 2.45 µM; in assay [8] it was 2.75 µM; in [9], 2.37 µM; in [10], 3.17 µM. Besides, the TGI was over 87.7 µM in assay [1]; 3.43 µM in [2]; 11.6 µM in assay [3]; 20.9 µM in assay [4]; over 51.6 µM in [5]; 11.5 µM in assay [7]. Further, the TGI is 10.2 µM in assay [8], 8.09 µM in [9] and over 34.9 µM in assay [10].
Regarding `CCCCCCCCCCC(O)C1CCC(C2CCC(C(O)CCCCC(O)CCCCCC(O)CC3=CC(C)OC3=O)O2)O1` (stereo not given), the GI50 in assay [1] is 1.41 µM; in [3] it was 2 µM; in assay [4], 0.218 µM; in assay [5], 2.79 µM; in [7], over 25 µM; in assay [8], 3.53 µM. For the same molecule, the GI50 in assay [9] was 10.7 µM; in assay [10], over 25 µM. The TGI in assay [1] was over 25 µM; in assay [2], over 25 µM; in assay [3] it was over 25 µM; in [4], 2.6 µM and > 25 µM; in assay [5], over 25 µM; in [6], over 25 µM. Moreover, the TGI in assay [7], in [8], in assay [9] and in assay [10] was over 25 µM in each case.
Consider `COc1ccc(OC)c(/C=C/NC=O)c1`, for which the TGI in assay [1] is over 100 µM; in [2], over 100 µM; in assay [3] it was over 100 µM; in [4] it was over 100 µM; in [5] it was over 100 µM; in [6], over 31.6 µM. Besides, the TGI in assay [7], in [8], in assay [9] and in [10] was over 100 µM in each case.
Regarding `CN1C(NC(=O)c2ccc(Cl)nc2)=NS(=O)(=O)c2cc(Cl)ccc21`, the GI50 in assay [1], in [2], in assay [3], in [4], in [5] and in assay [6] was over 100 µM throughout. Further, the GI50 in assay [7], in assay [8], in assay [9] and in [10] was over 100 µM in each case. In addition, the TGI in assay [1], in assay [2], in assay [3], in assay [4], in [5] and in assay [6] was over 100 µM throughout. The TGI in assay [7], in assay [8], in assay [9] and in assay [10] was over 100 µM throughout.
Take `COc1cc(Cn2c(-c3ccccc3)cc3c2-c2oncc2CC3)cc(OC)c1OC`: the GI50 is 1.93 µM in [1]; 1.36 µM in assay [2]; 0.366 µM in assay [3]; 0.831 µM in [4]; 3.62 µM in assay [5]; 0.42 µM in [6]. Further, the GI50 in assay [7] is 5.77 µM; in assay [8], 1.52 µM; in [9], 0.452 µM; in [10], 1.73 µM. Moreover, the TGI is over 100 µM in assay [1]; 50.5 µM in assay [2]; 5.57 µM in assay [3]; over 100 µM in assay [4]; over 100 µM in assay [5]; 43.2 µM in assay [6]. Moreover, the TGI in assay [7] was over 100 µM; in [8], 39.8 µM; in assay [9] it was over 100 µM; in [10], over 100 µM.
In the case of `COc1ccc(-c2cc3c(nn2)-c2ccccc2C3=O)cc1`, the GI50 in assay [1] is over 100 µM; in assay [2], over 100 µM; in assay [3], over 100 µM; in assay [4], over 100 µM; in assay [5] it was over 100 µM; in assay [6] it was 14.7 µM. The GI50 in [7], in assay [8], in [9] and in [10] was over 100 µM each time. The TGI in assay [1], in assay [2], in assay [3], in [4], in assay [5] and in assay [6] was over 100 µM in each case. Also, the TGI in [7], in assay [8], in [9] and in assay [10] was over 100 µM in each case.
As for `NCCCCn1c2c(c3ccccc3c1=O)C(=O)c1ccccc1-2`, the GI50 in assay [1] was 0.389 µM; in assay [2], 0.644 µM; in assay [3], 0.0726 µM; in [4] it was 0.0269 µM; in assay [5] it was 0.193 µM; in assay [7], 0.208 µM. Besides, the GI50 was 0.0639 µM in assay [8], under 0.0218 µM in assay [9] and 0.0131 µM in assay [10]. Also, the TGI is 12.2 µM in [1]; 0.753 µM in assay [3]; 0.346 µM in assay [4]; 2.16 µM in [5]; 0.0486 µM in [6]; 1.86 µM in assay [7]. Moreover, the TGI in assay [8] turned out to be 0.573 µM; in assay [9] it was 0.614 µM; in assay [10] it was 0.498 µM.
Take `C[C@]12CC[C@@H]3c4ccc(O)cc4CC[C@H]3[C@@H]1CC[C@@H]2NS(=O)(=O)c1ccc(C(F)(F)F)cc1`: the GI50 was 3.28 µM in assay [1]; 1.63 µM in [2]; 1.91 µM in [3]; 1.68 µM in assay [4]; 1.99 µM in [5]; 2.43 µM in assay [6]. The GI50 in [7] is 3.1 µM; in [8], 1.95 µM; in assay [9], 1.98 µM; in [10], 2.75 µM. Besides, the TGI in [1] came out at 11.6 µM; in [2], 3.13 µM; in [3], 3.9 µM; in assay [4] it was 3.06 µM; in assay [5], 5.24 µM; in assay [6] it was 7.5 µM. The TGI in assay [7] is 11.8 µM; in assay [8], 3.77 µM; in [9], 4.11 µM; in [10] it was 7.11 µM.
As to `O=[N+]([O-])c1ccc2nnnn2c1`, the TGI in assay [1] was over 100 µM; in assay [2], over 100 µM; in assay [3], over 100 µM; in assay [4] it was 35.8 µM; in assay [5], over 100 µM; in assay [6], 87.1 µM. For the same molecule, the TGI in assay [7], in assay [8], in assay [9] and in [10] was over 100 µM each time.
Regarding `Cc1cc(C)cc(Nc2cc(C)nc3nc(C(F)(F)F)nn23)c1`, the GI50 in [1] was over 100 µM; in [2], 24.3 µM; in assay [3] it was 32.3 µM; in assay [4], over 100 µM; in [5], over 100 µM; in assay [6] it was over 100 µM. The GI50 is 44.4 µM in [7], 37.6 µM in [8], over 100 µM in [9] and over 100 µM in assay [10]. Further, the TGI in assay [1], in [2], in assay [3], in assay [4], in [5] and in assay [6] was over 100 µM each time. Moreover, the TGI in [7], in assay [8], in assay [9] and in assay [10] was over 100 µM throughout.
Regarding `O=C(C[C@@H](C(=O)NCc1cccc(C(F)(F)F)c1)N1C(=O)[C@@H](N2C(=O)OC[C@@H]2c2ccccc2)[C@H]1/C=C/c1ccccc1)NC1CCN(Cc2ccccc2)CC1`, the GI50 is 9.33 µM in assay [1]; 1.87 µM in assay [2]; 15.6 µM in assay [3]; 4.03 µM in assay [4]; 6.06 µM in [5]; 1.89 µM in assay [6]. The GI50 was 3.81 µM in assay [7], 6.51 µM in assay [8], 6.58 µM in assay [9] and 7.72 µM in assay [10]. Moreover, the TGI in assay [1] was found to be 36.5 µM; in [2] it was 4.88 µM; in assay [3], 30.8 µM; in [4], 18.9 µM; in [5], 20.8 µM; in [6], 5.43 µM. Besides, the TGI in assay [7] was 21.4 µM; in assay [8] it was 22.6 µM; in assay [9], 21.8 µM; in assay [10] it was over 100 µM.
As for `CC[C@H](C)[C@H](NC(=O)[C@H]1CCCCN1C)C(=O)N(C)[C@H](CCc1nc(C(=O)N[C@@H](Cc2ccccc2)C[C@H](C)C(=O)OC)cs1)C(C)C`, the GI50 in [1] was 0.151 µM; in assay [2], 0.308 µM; in assay [3], 0.459 µM; in [4] it was 0.353 µM; in assay [5], 0.375 µM; in [6], 0.0726 µM. Besides, the GI50 in assay [7] was 1.03 µM; in [8] it was 0.432 µM; in assay [9] it was 0.395 µM; in assay [10], 0.351 µM. In addition, the TGI in assay [1] is over 25 µM; in assay [2], over 25 µM; in assay [3], over 25 µM; in [4] it was over 25 µM; in assay [5] it was over 25 µM; in assay [6], 10.8 µM. Besides, the TGI in assay [7] is over 25 µM; in assay [8] it was over 11.6 µM; in [9], over 10.3 µM; in assay [10], over 25 µM.
As for `COc1ccc(C2CC(=O)c3c(O)c(OC)c(OC)c(OC)c3O2)c(O)c1` (stereo not given), the GI50 was 0.384 µM in assay [1]; 0.243 µM in assay [2]; 0.349 µM in assay [3]; 0.432 µM in [4]; 0.0707 µM in assay [5]; 0.0582 µM in assay [6]. In addition, the GI50 in assay [7] is 0.534 µM; in assay [8], 0.839 µM; in [9], 0.0637 µM; in assay [10], 0.25 µM. The TGI in assay [1] is over 100 µM; in assay [2], 25.5 µM; in assay [3], 14.6 µM; in assay [4] it was 19.2 µM; in assay [5] it was 20.8 µM; in [6], 27 µM. For the same molecule, the TGI in assay [7] is 38.3 µM; in assay [8], over 100 µM; in [9], 10.9 µM; in assay [10], 15.9 µM.

These data come from PubChem BioAssay (NCI).
